Test results as given in the supplement of paper PMC10307832.

Key:
Experiment in all cases: relative viability (nuclei count vs DMSO), 5 days (fraction); higher = more cells survive
[1] = test system: NCI-H2126
Procedure, shortened: (§1)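 Lung cancer cell lines in 1536-well plates were dosed by pin tool the day after seeding, either with one drug alone or with a fixed anchor-drug dose plus five library-drug doses (not always all listed) in √10 steps. After 5 days, cells were fixed and their nuclei stained in one step (final 0.05% Triton X-100, 1% formaldehyde, 1 ug/ml Hoechst), then counted on 4× images. Relative viability is the nuclei count in treated wells divided by that in vehicle wells. Values are medians of duplicate plates.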

[2] = test system: LC-2-ad
Procedure, shortened: as §1

[3] = test system: EPLC-272H
Procedure, shortened: as §1

[4] = test system: ChaGo-K-1
Procedure, shortened: as §1

[5] = test system: PC-14
Procedure, shortened: as §1

[6] = test system: 201T
Procedure, shortened: as §1

[7] = test system: NCI-H661
Procedure, shortened: as §1

[8] = test system: NCI-H1666
Procedure, shortened: as §1

[9] = test system: RERF-LC-KJ
Procedure, shortened: as §1

[10] = test system: NCI-H520
Procedure, shortened: as §1

[11] = test system: NCI-H650
Procedure, shortened: as §1

[12] = test system: HCC-78
Procedure, shortened: as §1

C=C1C(=O)O[C@@H](CCCCCCCC)[C@@H]1C(=O)O [C-75] + C[C@@H](Oc1cc(-c2cnn(C3CCNCC3)c2)cnc1N)c1c(Cl)ccc(F)c1Cl [Crizotinib] (partner 1 µM)
relative viability ([1]; first compound 0.08 µM): 1.04 | relative viability ([1]; first compound 0.253 µM): 1.07 | relative viability ([1]; first compound 0.8 µM): 1.01 | relative viability ([1]; first compound 2.53 µM): 0.735 | relative viability ([1]; first compound 8 µM): 0.972 | relative viability ([2]; first compound 0.08 µM): 0.467 | relative viability ([2]; first compound 0.253 µM): 0.467 | relative viability ([2]; first compound 0.8 µM): 0.369 | relative viability ([2]; first compound 2.53 µM): 0.446 | relative viability ([2]; first compound 8 µM): 0.42 | relative viability ([3]; first compound 0.08 µM): 0.86 | relative viability ([3]; first compound 0.253 µM): 0.994 | relative viability ([3]; first compound 0.8 µM): 0.824 | relative viability ([3]; first compound 2.53 µM): 0.672 | relative viability ([3]; first compound 8 µM): 0.658 | relative viability ([4]; first compound 0.08 µM): 1.03 | relative viability ([4]; first compound 0.253 µM): 0.983 | relative viability ([4]; first compound 0.8 µM): 1.12 | relative viability ([4]; first compound 2.53 µM): 0.818 | relative viability ([4]; first compound 8 µM): 1.08 | relative viability ([5]; first compound 0.08 µM): 0.836 | relative viability ([5]; first compound 0.253 µM): 0.905 | relative viability ([5]; first compound 0.8 µM): 0.893 | relative viability ([5]; first compound 2.53 µM): 0.741 | relative viability ([5]; first compound 8 µM): 0.998 | relative viability ([6]; first compound 0.08 µM): 1.05 | relative viability ([6]; first compound 0.253 µM): 1.05 | relative viability ([6]; first compound 0.8 µM): 1.01 | relative viability ([6]; first compound 2.53 µM): 0.966 | relative viability ([6]; first compound 8 µM): 1.05 | relative viability ([7]; first compound 0.08 µM): 1.1 | relative viability ([7]; first compound 0.253 µM): 1.02 | relative viability ([7]; first compound 0.8 µM): 1.04 | relative viability ([7]; first compound 2.53 µM): 0.933 | relative viability ([7]; first compound 8 µM): 1.09 | relative viability ([8]; first compound 0.08 µM): 1.19 | relative viability ([8]; first compound 0.253 µM): 1.21 | relative viability ([8]; first compound 0.8 µM): 0.928 | relative viability ([8]; first compound 2.53 µM): 0.847 | relative viability ([8]; first compound 8 µM): 0.614 | relative viability ([9]; first compound 0.08 µM): 0.881 | relative viability ([9]; first compound 0.253 µM): 0.846 | relative viability ([9]; first compound 0.8 µM): 0.815 | relative viability ([9]; first compound 2.53 µM): 0.704 | relative viability ([9]; first compound 8 µM): 0.86 | relative viability ([10]; first compound 0.08 µM): 0.607 | relative viability ([10]; first compound 0.253 µM): 0.841 | relative viability ([10]; first compound 0.8 µM): 0.673 | relative viability ([10]; first compound 2.53 µM): 0.706 | relative viability ([10]; first compound 8 µM): 0.651 | relative viability ([11]; first compound 0.08 µM): 0.679 | relative viability ([11]; first compound 0.253 µM): 0.72 | relative viability ([11]; first compound 0.8 µM): 0.668 | relative viability ([11]; first compound 2.53 µM): 0.597 | relative viability ([11]; first compound 8 µM): 0.729 | relative viability ([12]; first compound 0.08 µM): 0.358 | relative viability ([12]; first compound 0.253 µM): 0.338
